Each molecule was assayed against T1, human cathepsin S (CatS) (Homo sapiens, UniProt P25774) (assay: Recombinant human cathepsin S (CatS) fluorogenic substrate inhibition assay). Conditions: recombinant human CatS, 10 μM Z-Valine-Valine-Arginine-AMC, pH 5.0; average of results obtained; read-out: CatS IC50.
T1 construct: made in house; host or cells: baculovirus system (insect cells)
Format: biochemical
Procedure: Recombinant human cathepsin S (CatS) was expressed in the baculovirus system and purified in one step with a thiopropyl-sepharose column. […] The assay is run in 150 mM sodium acetate pH 5.0 containing 1.5 mM DTT and 150 mM NaCl. […] Measurements are taken every min for 20 min. The rate is calculated from the slope of the increase in fluorescence and the percent inhibition is calculated from this.

T1 sequence (P25774 115-331): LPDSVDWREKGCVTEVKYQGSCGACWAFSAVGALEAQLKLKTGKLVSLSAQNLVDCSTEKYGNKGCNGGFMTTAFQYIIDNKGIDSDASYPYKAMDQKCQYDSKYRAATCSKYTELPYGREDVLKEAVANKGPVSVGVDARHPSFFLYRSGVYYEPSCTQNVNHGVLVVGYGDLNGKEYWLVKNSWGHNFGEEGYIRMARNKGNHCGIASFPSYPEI

IC50 [nM] | SMILES
80 | CC(C)OC(=O)NCc1cc(-c2nn(CCCN3CCC(N4CCCC4=O)CC3)c3c2CN(S(C)(=O)=O)CC3)ccc1C(F)(F)F [Example 43, [5-(5-Methanesulfonyl-1-{3-[4-(2-oxo-pyrrolidin-1-yl)-piperidin-1-yl]-propyl}-4,5,6,7-tetrahydro-1H-pyrazolo[4,3-c]pyridin-3-yl)-2-trifluoromethyl-benzyl]-carbamic acid isopropyl ester]
160 | CC(C)NC(=O)NCc1cc(-c2nn(CCCN3CCC(N4CCCC4=O)CC3)c3c2CN(S(C)(=O)=O)CC3)ccc1C(F)(F)F [Example 44, 1-Isopropyl-3-[5-(5-methanesulfonyl-1-{3-[4-(2-oxo-pyrrolidin-1-yl)-piperidin-1-yl]-propyl}-4,5,6,7-tetrahydro-1H-pyrazolo[4,3-c]pyridin-3-yl)-2-trifluoromethyl-benzyl]-urea]
80 | CS(=O)(=O)N1CCc2c(c(-c3ccc(C(F)(F)F)c(CNC(=O)N4CCOCC4)c3)nn2CCCN2CCC(N3CCCC3=O)CC2)C1 [Example 45, Morpholine-4-carboxylic acid 5-(5-methanesulfonyl-1-{3-[4-(2-oxo-pyrrolidin-1-yl)-piperidin-1-yl]-propyl}-4,5,6,7-tetrahydro-1H-pyrazolo[4,3-c]pyridin-3-yl)-2-trifluoromethyl-benzylamide]
410 | CSC(=O)NCc1cc(-c2nn(CCCN3CCC(N4CCCC4=O)CC3)c3c2CN(S(C)(=O)=O)CC3)ccc1C(F)(F)F [Example 46, [5-(5-Methanesulfonyl-1-{3-[4-(2-oxo-pyrrolidin-1-yl)-piperidin-1-yl]-propyl}-4,5,6,7-tetrahydro-1H-pyrazolo[4,3-c]pyridin-3-yl)-2-trifluoromethyl-benzyl]-thiocarbamic acid S-methyl ester]
300 | CC(C)CCNCc1cc(-c2nn(CCCN3CCC(N4CCCC4=O)CC3)c3c2CN(S(C)(=O)=O)CC3)ccc1C(F)(F)F [Example 47, 1-{1-[3-(5-Methanesulfonyl-3-{3-[(3-methyl-butylamino)-methyl]-4-trifluoromethyl-phenyl}-4,5,6,7-tetrahydro-pyrazolo[4,3-c]pyridin-1-yl)-propyl]-piperidin-4-yl}-pyrrolidin-2-one]
30 | CS(=O)(=O)N1CCc2c(c(-c3ccc(C(F)(F)F)c(CNC(=O)c4ccc(Br)s4)c3)nn2CC(O)CN2CCC(N3CCCC3=O)CC2)C1 (centres unmarked) [Example 48, 5-Bromo-thiophene-2-carboxylic acid 5-(1-{2-hydroxy-3-[4-(2-oxo-pyrrolidin-1-yl)-piperidin-1-yl]-propyl}-5-methanesulfonyl-4,5,6,7-tetrahydro-1H-pyrazolo[4,3-c]pyridin-3-yl)-2-trifluoromethyl-benzylamide]
160 | Cc1ccsc1C(=O)NCc1cc(-c2nn(CC(O)CN3CCC(N4CCCC4=O)CC3)c3c2CN(S(C)(=O)=O)CC3)ccc1C(F)(F)F (centres unmarked) [Example 49, 3-Methyl-thiophene-2-carboxylic acid 5-(1-{2-hydroxy-3-[4-(2-oxo-pyrrolidin-1-yl)-piperidin-1-yl]-propyl}-5-methanesulfonyl-4,5,6,7-tetrahydro-1H-pyrazolo[4,3-c]pyridin-3-yl)-2-trifluoromethyl-benzylamide]
30 | CS(=O)(=O)N1CCc2c(c(-c3ccc(C(F)(F)F)c(CNC(=O)c4cc5c(s4)CCC5)c3)nn2CC(O)CN2CCC(N3CCCC3=O)CC2)C1 (centres unmarked) [Example 50, 5,6-Dihydro-4H-cyclopenta[b]thiophene-2-carboxylic acid 5-(1-{2-hydroxy-3-[4-(2-oxo-pyrrolidin-1-yl)-piperidin-1-yl]-propyl}-5-methanesulfonyl-4,5,6,7-tetrahydro-1H-pyrazolo[4,3-c]pyridin-3-yl)-2-trifluoromethyl-benzylamide]

Reference: patent US20080269241A1, “BICYCLIC AMINOPROPYL TETRAHYDRO-PYRAZOLO-PYRIDINE MODULATORS OF CATHEPSIN S” (priority 2007, published 2008)
